Results: patent US20100210602A1, “PhoU (PerF), A P[…] INVOLVED IN [sequence] FORMATION AND TOLERANCE TO MULTIPLE ANTIBIOTICS AND [sequence] AS A DRUG TARGET FOR [sequence] BACTERIA” (priority 2006, published 2010)
Values after ≈ are worked out from the molar mass of the structure shown. Read-outs that look alike come from different tables or passages of the source.

Assays:
[1] = target: T1, PhoU (Escherichia coli, UniProt P0A9K7); experiment: PhoU phosphatase substrate specificity; assay type: biochemical, E. coli; details: pH5, pH7 and pH8
T1 construct: His; made in house
Protocol: Different substrates for the PhoU phosphatase activity were tested. […] For PhoU, the substrates acetyl-P, carbamoyl-P, imido-di phosphate (imido-di-P), r-nitrophenyl phosphate (rNPP), β-Nicotinamide adenine dinucleotide phosphate (NADP), Glucose-1,6-bisphosphate (Glucose-1,6-bisP) were tested at pH5, pH7, and pH8 condition, as potential PhoU phosphatase activity.

[2] = system: wild type strain W3110; experiment: microbe, parasite or virus in culture; assay type: cell-based, E. coli; details: Escherichia coli
[3] = system: PhoU mutant (JHU-313); experiment: MIC/MBC by serial two-fold dilutions in LB broth; assay type: cell-based, E. coli; details: Escherichia coli, 16 h at 37° C.; for MBC: read-out: MBC; for MIC: read-out: MIC
[4] = system: JHU-313 containing pPhoU; experiment: MIC/MBC by serial two-fold dilutions in LB broth; assay type: cell-based, E. coli; details: Escherichia coli, 16 h at 37° C.; for MBC: read-out: MBC; for MIC: read-out: MIC
[5] = system: JHU-313 containing pVector; experiment: MIC/MBC by serial two-fold dilutions in LB broth; assay type: cell-based, E. coli; details: Escherichia coli, 16 h at 37° C.; for MBC: read-out: MBC; for MIC: read-out: MIC
[6] = system: wild type strain W3110; assay type: cell-based, E. coli; details: 20 h after 1.5 h ampicillin pre-exposure; ampicillin 100, gentamicin 20, trimethoprim 16, norfloxacin 5 μg/ml
[7] = system: PhoU mutant (JHU-313); experiment: Sequential antibiotic exposure of ampicillin persisters (CFU); assay type: cell-based, E. coli; details: 20 h after 1.5 h ampicillin pre-exposure; ampicillin 100, gentamicin 20, trimethoprim 16, norfloxacin 5 μg/ml
[8] = system: wild type strain W3110; assay type: cell-based
[9] = system: PhoU transposon mutant (JHU-313); assay type: cell-based
[10] = system: PhoU deletion mutant (ΔphoU); assay type: cell-based
[11] = system: W3110; experiment: microbe, parasite or virus in culture; details: Escherichia coli, read-out: zone inhibition
[12] = system: JHU-313; experiment: Kirby-Bauer paper disc assay, zone inhibition
[13] = system: JHU-313 containing pPhoU; experiment: Kirby-Bauer paper disc assay, zone inhibition
[14] = system: JHU-313 containing pVector; experiment: Kirby-Bauer paper disc assay, zone inhibition
[15] = system: W3110
[16] = log phase, 1 week, Ap100, Norf3
[17] = log phase, 5 hr, ampicillin 100 μg/ml (Ap100), norfloxacin 3 μg/ml (Norf3)
[18] = log phase, 3 days, Ap100, Norf3
[19] = log phase, 5 days, Ap100, Norf3
[20] = log phase, 10 days, Ap100, Norf3
[21] = log phase, ampicillin 100 μg/ml, norfloxacin 3 μg/ml
[22] = stationary phase, 3 μg/ml, 120 hr exposure
[23] = stationary phase, 1 week, Ap100, Norf3
[24] = stationary phase, 5 hr, ampicillin 100 μg/ml (Ap100), norfloxacin 3 μg/ml (Norf3)
[25] = stationary phase, 1 day, Ap100, Norf3
[26] = stationary phase, 3 days, Ap100, Norf3
[27] = stationary phase, 5 days, Ap100, Norf3
[28] = stationary phase, 10 days, Ap100, Norf3
[29] = stationary phase, norfloxacin 3 μg/ml
[30] = Escherichia coli, read-out: zone inhibition

T1 sequence (P0A9K7 whole entry): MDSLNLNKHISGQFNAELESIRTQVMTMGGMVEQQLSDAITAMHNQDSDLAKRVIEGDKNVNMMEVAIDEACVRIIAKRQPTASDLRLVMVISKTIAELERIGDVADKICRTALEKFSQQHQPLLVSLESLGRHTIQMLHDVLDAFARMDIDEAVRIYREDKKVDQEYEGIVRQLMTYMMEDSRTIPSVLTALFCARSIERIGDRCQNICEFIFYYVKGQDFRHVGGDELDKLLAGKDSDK

Compound: CC(=O)OP(=O)(O)O [acetyl-P, acetyl phosphate]
- rank as PhoU phosphatase substrate [1]: acetyl-P>rNPP>carbamoyl-P>Glucose-1,6-bisP>NADP

Compound: CCn1cc(C(=O)O)c(=O)c2cc(F)c(N3CCNCC3)cc21 [Norfloxacin, norfloxacin]
- MBC ([2]; W3110, LB broth, 16 h at 37° C., read-out: MBC): 1 µg/mL (≈ 3.13 µM)
- MIC ([2]; W3110, LB broth, 16 h at 37° C., read-out: MIC): 0.5 µg/mL (≈ 1.57 µM)
- MBC [3]: 0.5 µg/mL (≈ 1.57 µM)
- MIC [3]: 0.125 µg/mL (≈ 0.391 µM)
- MBC [4]: 1 µg/mL (≈ 3.13 µM)
- MIC [4]: 0.5 µg/mL (≈ 1.57 µM)
- MBC [5]: 0.5 µg/mL (≈ 1.57 µM)
- MIC [5]: 0.125 µg/mL (≈ 0.391 µM)
- CFU after second antibiotic exposure [6]: 7 × 10^5 CFU/ml
- CFU after second antibiotic exposure [7]: 0 CFU/ml
- CFU [8, 16]: 0 CFU
- CFU [8, 17]: 1 × 10^8 CFU
- CFU ([8]; log phase, 1 day, Ap100, Norf3): 4 × 10^6 CFU
- CFU [8, 18]: 5 × 10^4 CFU
- CFU [8, 19]: 7 × 10^2 CFU
- CFU [8, 20]: 0 CFU
- time to killing of all cells [8, 21]: 5 days
- viable bacteria left [8, 22]: about 10^7 CFU/ml
- CFU [8, 23]: 1.5 × 10^4 CFU
- CFU [8, 24]: 5 × 10^9 CFU
- CFU [8, 25]: 4 × 10^9 CFU
- CFU [8, 26]: 1 × 10^8 CFU
- CFU [8, 27]: 4 × 10^6 CFU
- CFU [8, 28]: 2 × 10^2 CFU
- CFU [9, 16]: 0 CFU
- CFU [9, 17]: 2 × 10^7 CFU
- CFU ([9]; log phase, 1 day, Ap100, Norf3): 4 × 10^5 CFU
- CFU [9, 18]: 0 CFU
- CFU [9, 19]: 0 CFU
- CFU [9, 20]: 0 CFU
- time to killing of all cells [9, 21]: 1 days
- viable bacteria left [9, 22]: no viable bacteria were left
- CFU [9, 23]: 0 CFU
- CFU [9, 24]: 3 × 10^8 CFU
- CFU [9, 25]: 4.5 × 10^7 CFU
- CFU [9, 26]: 2 × 10^5 CFU
- CFU [9, 27]: 0 CFU
- CFU [9, 28]: 0 CFU
- time to complete killing [9, 29]: ≤ 5 days
- CFU [10, 16]: 0 CFU
- CFU [10, 17]: 5 × 10^7 CFU
- CFU ([10]; log phase, 1 day, Ap100, Norf3): 1 × 10^6 CFU
- CFU [10, 18]: 0 CFU
- CFU [10, 19]: 0 CFU
- CFU [10, 20]: 0 CFU
- time to killing of all cells [10, 21]: 1 days
- CFU [10, 23]: 0 CFU
- CFU [10, 24]: 6 × 10^8 CFU
- CFU [10, 25]: 2 × 10^8 CFU
- CFU [10, 26]: 3 × 10^5 CFU
- CFU [10, 27]: 0 CFU
- CFU [10, 28]: 0 CFU
- time to complete killing [10, 29]: ≤ 5 days
- zone of inhibition at 0.1 µg/mL [11]: 24 mm
- zone of inhibition at 0.5 µg/mL [11]: 27 mm
- zone of inhibition at 2 µg/mL [11]: 30 mm
- zone of inhibition at 4 µg/mL [11]: 32 mm
- zone of inhibition at 0.1 µg/mL [12, 30]: 28 mm
- zone of inhibition at 0.5 µg/mL [12, 30]: 30 mm
- zone of inhibition at 2 µg/mL [12, 30]: 34 mm
- zone of inhibition at 4 µg/mL [12, 30]: 37 mm
- zone of inhibition at 0.1 µg/mL [13, 30]: 27 mm
- zone of inhibition at 0.5 µg/mL [13, 30]: 31 mm
- zone of inhibition at 2 µg/mL [13, 30]: 35 mm
- zone of inhibition at 4 µg/mL [13, 30]: 36 mm
- zone of inhibition at 0.1 µg/mL [14, 30]: 29 mm
- zone of inhibition at 0.5 µg/mL [14, 30]: 35 mm
- zone of inhibition at 2 µg/mL [14, 30]: 40 mm
- zone of inhibition at 4 µg/mL [14, 30]: 44 mm

Compound: COc1cc(Cc2cnc(N)nc2N)cc(OC)c1OC [Trimethoprim, trimethoprim]
- MBC ([2]; W3110, 16 h): 8 µg/mL (≈ 27.6 µM)
- MIC ([2]; W3110, 16 h): 2 µg/mL (≈ 6.89 µM)
- MBC [3]: 1 µg/mL (≈ 3.44 µM)
- MIC [3]: 0.25 µg/mL (≈ 0.861 µM)
- MBC [4]: 4 µg/mL (≈ 13.8 µM)
- MIC [4]: 2 µg/mL (≈ 6.89 µM)
- MBC [5]: 1 µg/mL (≈ 3.44 µM)
- MIC [5]: 0.5 µg/mL (≈ 1.72 µM)
- zone of inhibition at 0.5 µg/mL [11]: 24 mm
- zone of inhibition at 1 µg/mL [11]: 26 mm
- zone of inhibition at 2 µg/mL [11]: 30 mm
- zone of inhibition at 0.5 µg/mL [12, 30]: 31 mm
- zone of inhibition at 1 µg/mL [12, 30]: 38 mm
- zone of inhibition at 2 µg/mL [12, 30]: 42 mm
- zone of inhibition at 0.5 µg/mL [13, 30]: 32 mm
- zone of inhibition at 1 µg/mL [13, 30]: 33 mm
- zone of inhibition at 2 µg/mL [13, 30]: 36 mm
- zone of inhibition at 0.5 µg/mL [14, 30]: 36 mm
- zone of inhibition at 1 µg/mL [14, 30]: 40 mm
- zone of inhibition at 2 µg/mL [14, 30]: 44 mm

Compound: β-Nicotinamide adenine dinucleotide phosphate [NADP]
- rank as PhoU phosphatase substrate [1]: acetyl-P>rNPP>carbamoyl-P>Glucose-1,6-bisP>NADP

Compound: OO [Hydrogen peroxide, hydrogen peroxide]
- zone inhibition [15]: 30 mm
- zone inhibition ([12]; peroxide (30%)): 37 mm
- zone inhibition ([13]; peroxide (30%)): 39 mm
- zone inhibition ([14]; peroxide (30%)): 46 mm
